Values joined by “and” are separate entries in the source; they are usually repeats but may differ in a detail not shown here. Identical values can stand only once.
Key:
[1] = test system: vaccinia viruses; experiment: Plaque assay of vaccinia virus pre-incubated with NAC on CV1 cells; format: cell-based; conditions: pre-incubation with 3, 10, 30 mM NAC, assay variation ±9%
[2] = test system: HBsAg; experiment: HBsAg antigenicity of NAC-treated HBV-positive supernatant with or without dialysis; format: biochemical, hepatitis B virus; conditions: 15 min incubation with NAC, dialysis against TNE buffer at 4° C. overnight versus not dialyzed
[3] = test system: HBeAg (hepatitis-B virus e antigen); experiment: Enzyme immunoassay (Abbott HBe EIA) of HBeAg in HepG2-2.2.15 supernatant treated with NAC; format: biochemical; conditions: 50 mM NAC
[4] = test system: human immunodeficiency virus (HIV); experiment: Syncytia formation of H9 cells infected with HIV virions pre-incubated with NAC; format: cell-based; conditions: for Test positives p/4 (syncytia formation): virions pre-incubated with 0.09 M NAC for 2 h, 4 parallel assays
Experimental: (§1) In order to examine whether NAC influences the HIV infection of cells, HIV-permissive cells ([…]) were incubated together with HIV-positive cell culture supernatant and the syncytia formation taking place upon successful infection of the host cell was observed. The H9 cell line is a CD4+ T-cell line of human origin (Popovic et al., 1984, Science 224:497-500). The HI virions (viral titer of the original solution is 10^7 viruses/ml) were initially pre-incubated together with NAC at room temperature for two hours (final NAC concentration 0.09 M, dissolved in serum-free cell culture medium) and then mixed with cell culture medium in a decadic dilution series (10^−1 to 10^−5). The same was made analogously with the control without NAC addition. Thereafter, the thus pretreated virions (and the untreated control, respectively) were added to the H9 cell culture for two hours to enable the adsorption of the viruses. Then, the suspension was washed with NAC-free medium and 48-well cell culture plates were covered therewith. Pour parallel assays were carried out for each dilution series. The giant cell formation was observed microscopically over an observation period of 26 days and assessed on a scale from 0 (no syncytia detectable) to 3 (great number of syncytia). It can be seen in connection with the untreated control (FIG. 1) that the syncytia formation is delayed when the viral titer decreases. The degree of syncytia formation is thus directly proportional to the number of infectious viruses. While with a viral titer of 10^5 the syncytia formation starts within four days already, it is delayed by about 2 weeks when the original virus solution has been diluted 10,000 times.
The delay of giant cell formation, which is shown in FIG. 1, is due to a reduction of the number of infectious virions—because of a correlation between viral titer and the number of syncytia. It is in no case caused by an influence of the metabolism of the host cell. The reduced capability to form giant cells (FIG. 1) can be quantified as titer exponent n by observing the laws established by Spearmann-Kärber.
With a total number of 4 preparations per dilution series there is [formula]
Thus, nNAC=−2.5 follows for the titer exponent after NAC treatment. Since the dilution stage of the untreated control, where syncytia formation could no longer be observed, was not determined accurately in this experiment, the maximum value for this preparation, i.e., 10^−6 was assumed as a calculation basis. Correspondingly, the titer of the untreated control is 10^−5,5 or less. The titer after the NAC treatment is 10^−2,5.

[5] = test system: HBsAg (hepatitis-B virus surface antigen); experiment: Enzyme immunoassay (Abbott Auszyme) of HBsAg in HepG2-2.2.15 supernatant treated with NAC; format: biochemical; conditions: 50 mM NAC
Experimental: The cell culture supernatant of a HBV-producing cell line (HepG2-2.2.15 cells, Sells et al., 1984, Proc. Natl. Acad. U.S.A. 84:1005-1009) was separated from the cells and then the viral antigens (HBsAg, hepatitis-B virus “surface” antigen) of the viral envelope were identified by means of an enzyme immunoassay (EIA). In a parallel experimental assay, the cell culture supernatant was treated with NAC directly before the EIA was carried out. […] Since as is known the main antigenic domain of HBsAg is stabilized by numerous disulfide bridges, it can be inferred from this experiment that NAC effects a change in the three-dimensional structure on the virus surface, which is caused by a separation of disulfide bridges. These very viral surface structures are essential for the attachment of the virus to its host cell and thus for its infectiosity.

[6] = test system: human immunodeficiency virus (HIV); experiment: p24-Ag test in cell culture medium of HIV-infected H9 cells, virions treated with NAC prior to infection; format: cell-based; conditions: for p24-Ag content in the cell culture medium, extinction at 492 nm: day 26 after infection, NAC-treated virions, exclusion limit <0.093
Experimental: as §1
This reduction of the infectiosity titer could also be confirmed by means of the p24-Ag test. For this purpose, the cell culture medium was renewed four days prior to the end of the experiment and the p24-Ag content of the cell culture medium was quantified upon termination of the experiment (day 26) (TABLE I). The p24-Ag values of the untreated control were always clearly positive.

With `CC(=O)N[C@@H](CS)C(=O)O` [NAC, N-acetyl cysteine] the “reduction of the viral titer of the vaccinia virus suspension” value [1] was “up to 70%”, the “effect of NAC on the viruses (HBsAg antigenicity) after removing NAC by dialysis” value [2] was “irreversible” and the “recognition of HBeAg by EIA” value [3] was “recognized unrestrictedly”. For the same compound, the “reduction of the viral titer, measured on the basis of syncytia formation capability” value ([4]; 0.09 M NAC versus untreated control) was “at least three decimal exponents”, the “titer exponent n after NAC treatment (Spearmann-Kärber)” value ([4]; 0.09 M NAC, 2 h, room temperature, syncytia formation) was −2.5 and the “syncytia formation within the observation period” value ([4]; NAC-treated virions diluted by more than 100 times (viral titer <10^4), observation period of four weeks) was “no longer possible to observe syncytia formation”. The “Test positives p/4 (syncytia formation)” value ([4]; class limit -1 (virus dilution 10^-1)) was 4/4, the “Test positives p/4 (syncytia formation)” value ([4]; class limit -2 (virus dilution 10^-2)) was 1/4 and the “Test positives p/4 (syncytia formation)” value ([4]; class limit -3 (virus dilution 10^-3)) was 1/4. The “Test positives p/4 (syncytia formation)” value ([4]; class limit -4 (virus dilution 10^-4)) was 2/4, the “Test positives p/4 (syncytia formation)” value ([4]; class limit -5 (virus dilution 10^-5)) was 0/4 and the “detection of HBsAg by EIA” value [5] was “not possible”. The “p24-Ag content in the cell culture medium versus untreated control” value ([6]; from an HIV dilution factor of 1/100 on, day 26) was “marked reduction”, the “p24-Ag content in the cell culture medium, extinction at 492 nm” value ([6]; virus dilution 10^-1) was over 2.0 O.D. 492 nm and the “p24-Ag content in the cell culture medium, extinction at 492 nm” value ([6]; virus dilution 10^-5) was 0.069 O.D. 492 nm and 0.04 O.D. 492 nm and 0.044 O.D. 492 nm.

From patent US6426370B1, “Use of thiol compounds in viral inactivation” (priority 2000, dated 2002)
